This note sets out measurements from patent US9586962B2, “Disubstituted octahydropyrrolo [3,4-C] pyrroles as orexin receptor modulators” (Janssen Pharmaceutica NV, priority 2011, dated 2017).

Each structure is given as a SMILES string.

The target in the assay is human orexin 2 receptor (Homo sapiens (Human), UniProt O43614). Description: Human orexin 2 receptor Ca2+ mobilization assay (FLIPR, PFSK cells, orexin B 100 nM). The assay is classed as cell-based. The following applies: modified Cheng-Prusoff correction, read-out: OR 2 Kb.
human orexin 2 receptor, sequence (O43614 whole entry): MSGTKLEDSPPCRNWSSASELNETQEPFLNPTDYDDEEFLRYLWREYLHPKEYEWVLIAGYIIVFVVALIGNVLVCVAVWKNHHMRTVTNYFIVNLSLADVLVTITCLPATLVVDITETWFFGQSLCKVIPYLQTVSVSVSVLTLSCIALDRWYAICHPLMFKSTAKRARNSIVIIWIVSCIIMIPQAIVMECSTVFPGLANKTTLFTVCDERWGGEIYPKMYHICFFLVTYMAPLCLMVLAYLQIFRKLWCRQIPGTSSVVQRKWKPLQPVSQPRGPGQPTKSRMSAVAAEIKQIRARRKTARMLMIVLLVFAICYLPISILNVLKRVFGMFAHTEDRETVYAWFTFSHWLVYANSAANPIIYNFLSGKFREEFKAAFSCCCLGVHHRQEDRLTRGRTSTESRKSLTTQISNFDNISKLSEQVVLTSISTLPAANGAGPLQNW
Take `Cc1cc(C)nc(N2CC3CN(C(=O)c4cccc(F)c4-c4ccn[nH]4)CC3C2)n1` (centres unmarked) [Example 284, 2-(4,6-Dimethylpyrimidin-2-yl)-5-{[3-fluoro-2-(1H-pyrazol-5-yl)phenyl]carbonyl}octahydropyrrolo[3,4-c]pyrrole]: the Kb amounted to 2 nM.
Under `Cc1nc(N2CC3CN(C(=O)c4ccccc4-n4nccn4)CC3C2)ncc1F` (centres unmarked) [Example 290, 2-(5-Fluoro-4-methylpyrimidin-2-yl)-5-{[2-(2H-1,2,3-triazol-2-yl)phenyl]carbonyl}octahydropyrrolo[3,4-c]pyrrole] stands 7 nM.
The figure for `Cc1cc(C)nc(N2CC3CN(C(=O)c4ccccc4-c4nc(C)no4)CC3C2)n1` (centres unmarked) [Example 306, 2-(4,6-Dimethylpyrimidin-2-yl)-5-{[2-(3-methyl-1,2,4-oxadiazol-5-yl)phenyl]carbonyl}octahydropyrrolo[3,4-c]pyrrole] is 13 nM; for `Cc1cc(C)nc(N2CC3CN(C(=O)c4ccccc4-c4ncn(C)n4)CC3C2)n1` (centres unmarked) [Example 308, 2-(4,6-Dimethylpyrimidin-2-yl)-5-{[2-(1-methyl-1H-1,2,4-triazol-3-yl)phenyl]carbonyl}octahydropyrrolo[3,4-c]pyrrole] it is 5 nM; for `Cc1noc(-c2ccccc2C(=O)N2CC3CN(c4nc(C)c(C)c(C)n4)CC3C2)n1` (centres unmarked) [Example 309, 2-{[2-(3-Methyl-1,2,4-oxadiazol-5-yl)phenyl]carbonyl}-5-(4,5,6-trimethylpyrimidin-2-yl)octahydropyrrolo[3,4-c]pyrrole] it is 6 nM.
Under `Cc1noc(-c2ccccc2C(=O)N2CC3CN(c4ncc(F)c(C)n4)CC3C2)n1` (centres unmarked) [Example 310, 2-(5-Fluoro-4-methylpyrimidin-2-yl)-5-{[2-(3-methyl-1,2,4-oxadiazol-5-yl)phenyl]carbonyl}octahydropyrrolo[3,4-c]pyrrole] stands 15 nM.
In the case of `Cc1nc(N2CC3CN(C(=O)c4ccccc4-c4ncn(C)n4)CC3C2)nc(C)c1C` (centres unmarked) [Example 311, 2-{[2-(1-Methyl-1H-1,2,4-triazol-3-yl)phenyl]carbonyl}-5-(4,5,6-trimethylpyrimidin-2-yl)octahydropyrrolo[3,4-c]pyrrole], the Kb worked out at 3 nM.
On to `Cc1nc(N2CC3CN(C(=O)c4ccccc4-c4ncn(C)n4)CC3C2)ncc1F` (centres unmarked) [Example 312, 2-(5-Fluoro-4-methylpyrimidin-2-yl)-5-{[2-(1-methyl-1H-1,2,4-triazol-3-yl)phenyl]carbonyl}octahydropyrrolo[3,4-c]pyrrole], for which the Kb was 11 nM.
The figure for `Cc1cc(C)nc(N2CC3CN(C(=O)c4c(F)cccc4-c4nc(C)no4)CC3C2)n1` (centres unmarked) [Example 315, 2-(4,6-Dimethylpyrimidin-2-yl)-5-{[2-fluoro-6-(3-methyl-1,2,4-oxadiazol-5-yl)phenyl]carbonyl}octahydropyrrolo[3,4-c]pyrrole] is 10 nM; for `Cc1noc(-c2ccccc2C(=O)N2CC3CN(c4nc(C)c(Cl)c(C)n4)CC3C2)n1` (centres unmarked) [Example 318, 2-(5-Chloro-4,6-dimethylpyrimidin-2-yl)-5-{[2-(3-methyl-1,2,4-oxadiazol-5-yl)phenyl]carbonyl}octahydropyrrolo[3,4-c]pyrrole] it is 3 nM; for `Cc1noc(-c2ccccc2C(=O)N2CC3CN(c4nc(C)c5c(n4)CCC5)CC3C2)n1` (centres unmarked) [Example 319, 4-Methyl-2-[5-{[2-(3-methyl-1,2,4-oxadiazol-5-yl)phenyl]carbonyl}hexahydropyrrolo[3,4-c]pyrrol-2(1H)-yl]-6,7-dihydro-5H-cyclopenta[d]pyrimidine] it is 7 nM.
Under `Cc1nc(N2CC3CN(C(=O)c4ccccc4-c4ncn(C)n4)CC3C2)nc(C)c1Cl` (centres unmarked) [Example 320, 2-(5-Chloro-4,6-dimethylpyrimidin-2-yl)-5-{[2-(1-methyl-1H-1,2,4-triazol-3-yl)phenyl]carbonyl}octahydropyrrolo[3,4-c]pyrrole] stands 2 nM; under `Cc1nc(N2CC3CN(C(=O)c4ccccc4-c4ncn(C)n4)CC3C2)ncc1Cl` (centres unmarked) [Example 321, 2-(5-Chloro-4-methylpyrimidin-2-yl)-5-{[2-(1-methyl-1H-1,2,4-triazol-3-yl)phenyl]carbonyl}octahydropyrrolo[3,4-c]pyrrole], 10 nM.
As to `CCc1c(C)nc(N2CC3CN(C(=O)c4ccccc4-c4ncn(C)n4)CC3C2)nc1C` (centres unmarked) [Example 322, 2-(5-Ethyl-4,6-dimethylpyrimidin-2-yl)-5-{[2-(1-methyl-1H-1,2,4-triazol-3-yl)phenyl]carbonyl}octahydropyrrolo[3,4-c]pyrrole], the Kb came to 5 nM.
Regarding `Cc1nc(N2CC3CN(C(=O)c4ncccc4-n4nccn4)CC3C2)nc(C)c1C` (centres unmarked) [Example 323, 2-{[3-(2H-1,2,3-Triazol-2-yl)pyridin-2-yl]carbonyl}-5-(4,5,6-trimethylpyrimidin-2-yl)octahydropyrrolo[3,4-c]pyrrole], the Kb was found to be 4 nM.
`Cc1nc(N2CC3CN(C(=O)c4ncccc4-n4nccn4)CC3C2)nc(C)c1F` (centres unmarked) [Example 325, 2-(5-Fluoro-4,6-dimethylpyrimidin-2-yl)-5-{[3-(2H-1,2,3-triazol-2-yl)pyridin-2-yl]carbonyl}octahydropyrrolo[3,4-c]pyrrole]: the Kb was 2 nM.
Under `Cc1cc(C)nc(N2CC3CN(C(=O)c4cccc5c4-c4ccccc4C5)CC3C2)n1` (centres unmarked) [Example 326, 2-(4,6-Dimethylpyrimidin-2-yl)-5-(9H-fluoren-4-ylcarbonyl)octahydropyrrolo[3,4-c]pyrrole] stands 4 nM; under `Cc1cc(C)nc(N2CC3CN(C(=O)c4c(-n5nccn5)ccc5c4OCO5)CC3C2)n1` (centres unmarked) [Example 327, [5-(4,6-Dimethyl-pyrimidin-2-yl)-hexahydro-pyrrolo[3,4-c]pyrrol-2-yl]-(5-[1,2,3]triazol-2-yl-benzo[1,3]dioxol-4-yl)methanone], 50 nM; under `Cc1cc(C)nc(N2CC3CN(C(=O)c4cccc5cccc(-n6nccn6)c45)CC3C2)n1` (centres unmarked) [Example 328, [5-(4,6-Dimethyl-pyrimidin-2-yl)-hexahydro-pyrrolo[3,4-c]pyrrol-2-yl]-(8-[1,2,3]triazol-2-yl-naphthalen-1-yl)-methanone], 40 nM.
Under `Cc1cc(C)nc(N2CC3CN(C(=O)c4cccc(F)c4-c4ccccn4)CC3C2)n1` (centres unmarked) [Example 367, (5-(4,6-Dimethylpyrimidin-2-yl)hexahydropyrrolo[3,4-c]pyrrol-2(1H)-yl)(3-fluoro-2-(pyridin-2-yl)phenyl)methanone] stands 3 nM; under `Cc1cccc(-c2c(F)cccc2C(=O)N2CC3CN(c4nc(C)cc(C)n4)CC3C2)n1` (centres unmarked) [Example 370, (5-(4,6-Dimethylpyrimidin-2-yl)hexahydropyrrolo[3,4-c]pyrrol-2(1H)-yl)(3-fluoro-2-(6-methylpyridin-2-yl)phenyl)methanone], 7 nM; under `Cc1ccnc(-c2c(F)cccc2C(=O)N2CC3CN(c4nc(C)cc(C)n4)CC3C2)c1` (centres unmarked) [Example 373, (5-(4,6-Dimethylpyrimidin-2-yl)hexahydropyrrolo[3,4-c]pyrrol-2(1H)-yl)(3-fluoro-2-(4-methylpyridin-2-yl)phenyl)methanone], 5 nM.
In the case of `Cc1ccc(-c2c(F)cccc2C(=O)N2CC3CN(c4nc(C)cc(C)n4)CC3C2)nc1` (centres unmarked) [Example 374, (5-(4,6-Dimethylpyrimidin-2-yl)hexahydropyrrolo[3,4-c]pyrrol-2(1H)-yl)(3-fluoro-2-(5-methylpyridin-2-yl)phenyl)methanone], the Kb was found to be 12 nM.
Take `Cc1cc(C)nc(N2CC3CN(C(=O)c4cccc(F)c4-c4ncccc4F)CC3C2)n1` (centres unmarked) [Example 375, (5-(4,6-Dimethylpyrimidin-2-yl)hexahydropyrrolo[3,4-c]pyrrol-2(1H)-yl)(3-fluoro-2-(3-fluoropyridin-2-yl)phenyl)methanone]: the Kb stood at 4 nM.
Take `COc1ccc(C(=O)N2CC3CN(c4ncc(F)c(C)n4)CC3C2)c(-n2nccn2)c1` (centres unmarked) [Example 377, 2-(5-Fluoro-4-methylpyrimidin-2-yl)-5-{[4-methoxy-2-(2H-1,2,3-triazol-2-yl)phenyl]carbonyl}octahydropyrrolo[3,4-c]pyrrole]: the Kb was 2 nM.
The figure for `COc1ccc(C(=O)N2CC3CN(c4ncc(Cl)c(C)n4)CC3C2)c(-n2nccn2)c1` (centres unmarked) [Example 378, 2-(5-Chloro-4-methylpyrimidin-2-yl)-5-{[4-methoxy-2-(2H-1,2,3-triazol-2-yl)phenyl]carbonyl}octahydropyrrolo[3,4-c]pyrrole] is 2 nM; for `COc1ccc(C(=O)N2CC3CN(c4nc(C)c(F)c(C)n4)CC3C2)c(-n2nccn2)c1` (centres unmarked) [Example 379, 2-(5-Fluoro-4,6-dimethylpyrimidin-2-yl)-5-{[4-methoxy-2-(2H-1,2,3-triazol-2-yl)phenyl]carbonyl}octahydropyrrolo[3,4-c]pyrrole] it is 5 nM.
The figure for `COc1ccc(C(=O)N2CC3CN(c4ncc(C)c(C)n4)CC3C2)c(-n2nccn2)c1` (centres unmarked) [Example 380, 2-(4,5-Dimethylpyrimidin-2-yl)-5-{[4-methoxy-2-(2H-1,2,3-triazol-2-yl)phenyl]carbonyl}octahydropyrrolo[3,4-c]pyrrole] is 5 nM; for `CCc1c(C)nc(N2CC3CN(C(=O)c4ncccc4-n4nccn4)CC3C2)nc1C` (centres unmarked) [Example 385, 2-(5-Ethyl-4,6-dimethylpyrimidin-2-yl)-5-{[3-(2H-1,2,3-triazol-2-yl)pyridin-2-yl]carbonyl}octahydropyrrolo[3,4-c]pyrrole] it is 8 nM.
On to `O=C(c1cccc(F)c1-c1ncccn1)N1CC2CN(c3cnc4cc(F)c(F)cc4n3)CC2C1` (centres unmarked) [Example 387, (5-(6,7-Difluoroquinoxalin-2-yl)hexahydropyrrolo[3,4-c]pyrrol-2(1H)-yl)(3-fluoro-2-(pyrimidin-2-yl)phenyl)methanone], for which the Kb was found to be 9 nM.
`COc1ccc(C(=O)N2CC3CN(c4cnc5cc(F)c(F)cc5n4)CC3C2)c(-n2nccn2)c1` (centres unmarked) [Example 389, (5-(6,7-Difluoroquinoxalin-2-yl)hexahydropyrrolo[3,4-c]pyrrol-2(1H)-yl)(4-methoxy-2-(2H-1,2,3-triazol-2-yl)phenyl)methanone]: the Kb turned out to be 14 nM.
In the case of `Cc1cc(C)nc(N2CC3CN(C(=O)c4cccc(F)c4-c4ccccn4)CC3C2)n1` (centres unmarked) [Example 472, (5-(4,6-dimethylpyrimidin-2-yl)hexahydropyrrolo[3,4-c]pyrrol-2(1H)-yl)(3-fluoro-2-(pyridin-2-yl)phenyl)methanone], the Kb was 3 nM.
